Experimental findings from ChEMBL document CHEMBL1201862, “PubChem BioAssay data set” (2004) are described below.

Active and inactive are the calls of the source.

A short description of experiment [1]: fluconazole-exposed Candida albicans growth modulators – fluorescence, retest, confirmation (AID 2467). Type of experiment: functional, cell-based.
The target in experiment [2] is ATP-dependent molecular chaperone HSP82 (Candida albicans (strain WO-1) (Yeast), UniProt C4YTQ8). As to the kind of experiment: steroid-induced GRE reporter decrease in yeast – S. cerevisiae, luminescence, Hsp90 inhibitor project, dose response (AID 2400).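 Further: beta-galactosidase luminescence from glucocorticoid response element reporter as proxy for Hsp90 function; inhibitor potency where signal loss means Hsp90 inhibition.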 Type of experiment: functional, cell-based.
Chain of ATP-dependent molecular chaperone HSP82 (C4YTQ8 whole entry): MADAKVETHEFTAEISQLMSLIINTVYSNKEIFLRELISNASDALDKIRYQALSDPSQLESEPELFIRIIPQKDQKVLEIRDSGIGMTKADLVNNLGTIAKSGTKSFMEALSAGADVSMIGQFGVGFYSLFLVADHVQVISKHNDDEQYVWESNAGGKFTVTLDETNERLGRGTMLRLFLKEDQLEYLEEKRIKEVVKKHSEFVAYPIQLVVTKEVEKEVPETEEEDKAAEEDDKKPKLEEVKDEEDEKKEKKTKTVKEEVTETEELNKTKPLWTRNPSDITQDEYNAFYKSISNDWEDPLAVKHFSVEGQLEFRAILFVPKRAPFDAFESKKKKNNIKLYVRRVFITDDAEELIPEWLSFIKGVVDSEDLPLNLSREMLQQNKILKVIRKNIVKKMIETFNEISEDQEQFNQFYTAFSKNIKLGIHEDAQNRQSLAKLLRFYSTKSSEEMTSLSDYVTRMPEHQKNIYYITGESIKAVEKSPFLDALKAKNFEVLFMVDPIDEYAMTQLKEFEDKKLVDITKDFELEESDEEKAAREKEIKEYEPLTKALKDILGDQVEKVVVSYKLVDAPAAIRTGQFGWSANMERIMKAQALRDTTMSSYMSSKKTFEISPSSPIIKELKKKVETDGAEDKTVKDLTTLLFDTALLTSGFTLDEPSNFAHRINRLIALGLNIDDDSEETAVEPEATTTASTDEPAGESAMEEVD
In experiment [3] the target is Tyrosyl-DNA phosphodiesterase 2 (Homo sapiens, UniProt O95551). Description: potency against TDP2 phosphodiesterase activity – biochemical, epi absorbance, IC50, dose response (AID 743297).
Chain of Tyrosyl-DNA phosphodiesterase 2 (O95551 whole entry): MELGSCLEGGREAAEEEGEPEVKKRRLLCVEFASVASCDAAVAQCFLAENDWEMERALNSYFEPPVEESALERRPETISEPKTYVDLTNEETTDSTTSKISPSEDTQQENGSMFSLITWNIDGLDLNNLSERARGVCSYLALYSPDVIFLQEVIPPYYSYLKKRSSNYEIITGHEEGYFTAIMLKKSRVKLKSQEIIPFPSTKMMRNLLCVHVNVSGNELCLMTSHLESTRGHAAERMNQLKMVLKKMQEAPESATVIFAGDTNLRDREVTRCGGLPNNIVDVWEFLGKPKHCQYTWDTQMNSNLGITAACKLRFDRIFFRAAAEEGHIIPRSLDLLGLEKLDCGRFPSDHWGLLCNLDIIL
A further experiment deals with T1, Hexokinase HKDC1 (Homo sapiens, UniProt Q2TB90).
T1 sequence (Q2TB90 whole entry): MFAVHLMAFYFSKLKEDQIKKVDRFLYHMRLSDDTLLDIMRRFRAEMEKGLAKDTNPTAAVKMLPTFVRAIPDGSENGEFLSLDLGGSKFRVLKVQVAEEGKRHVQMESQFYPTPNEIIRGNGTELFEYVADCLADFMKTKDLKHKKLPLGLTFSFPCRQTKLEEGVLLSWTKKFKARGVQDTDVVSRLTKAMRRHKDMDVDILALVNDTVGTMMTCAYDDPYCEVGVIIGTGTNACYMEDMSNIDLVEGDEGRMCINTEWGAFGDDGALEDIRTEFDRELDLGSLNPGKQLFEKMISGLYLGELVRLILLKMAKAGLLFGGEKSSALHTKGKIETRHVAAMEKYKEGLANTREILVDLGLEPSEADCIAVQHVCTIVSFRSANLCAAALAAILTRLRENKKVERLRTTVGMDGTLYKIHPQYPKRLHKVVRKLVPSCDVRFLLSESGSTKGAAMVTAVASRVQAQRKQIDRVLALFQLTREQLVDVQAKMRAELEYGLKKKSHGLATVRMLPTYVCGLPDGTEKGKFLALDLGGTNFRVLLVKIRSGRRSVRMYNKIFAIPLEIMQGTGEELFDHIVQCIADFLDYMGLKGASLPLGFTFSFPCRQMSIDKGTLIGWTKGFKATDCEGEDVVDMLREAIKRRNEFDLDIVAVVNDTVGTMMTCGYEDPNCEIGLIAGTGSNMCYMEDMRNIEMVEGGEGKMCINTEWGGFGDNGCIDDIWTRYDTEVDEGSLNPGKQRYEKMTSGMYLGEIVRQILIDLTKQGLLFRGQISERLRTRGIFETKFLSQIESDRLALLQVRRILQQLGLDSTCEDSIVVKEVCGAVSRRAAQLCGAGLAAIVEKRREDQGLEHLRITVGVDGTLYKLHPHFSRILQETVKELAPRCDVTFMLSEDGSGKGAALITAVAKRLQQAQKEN
As to the kind of experiment: inhibition of HKDC1 glucose phosphorylation – biochemical, W721R variant, dose response (AID 504729). Type of experiment: functional.

For experiment [4], the target named is T2, Apoptotic protease-activating factor 1 (Homo sapiens, UniProt O14727).
T2 sequence (O14727 whole entry): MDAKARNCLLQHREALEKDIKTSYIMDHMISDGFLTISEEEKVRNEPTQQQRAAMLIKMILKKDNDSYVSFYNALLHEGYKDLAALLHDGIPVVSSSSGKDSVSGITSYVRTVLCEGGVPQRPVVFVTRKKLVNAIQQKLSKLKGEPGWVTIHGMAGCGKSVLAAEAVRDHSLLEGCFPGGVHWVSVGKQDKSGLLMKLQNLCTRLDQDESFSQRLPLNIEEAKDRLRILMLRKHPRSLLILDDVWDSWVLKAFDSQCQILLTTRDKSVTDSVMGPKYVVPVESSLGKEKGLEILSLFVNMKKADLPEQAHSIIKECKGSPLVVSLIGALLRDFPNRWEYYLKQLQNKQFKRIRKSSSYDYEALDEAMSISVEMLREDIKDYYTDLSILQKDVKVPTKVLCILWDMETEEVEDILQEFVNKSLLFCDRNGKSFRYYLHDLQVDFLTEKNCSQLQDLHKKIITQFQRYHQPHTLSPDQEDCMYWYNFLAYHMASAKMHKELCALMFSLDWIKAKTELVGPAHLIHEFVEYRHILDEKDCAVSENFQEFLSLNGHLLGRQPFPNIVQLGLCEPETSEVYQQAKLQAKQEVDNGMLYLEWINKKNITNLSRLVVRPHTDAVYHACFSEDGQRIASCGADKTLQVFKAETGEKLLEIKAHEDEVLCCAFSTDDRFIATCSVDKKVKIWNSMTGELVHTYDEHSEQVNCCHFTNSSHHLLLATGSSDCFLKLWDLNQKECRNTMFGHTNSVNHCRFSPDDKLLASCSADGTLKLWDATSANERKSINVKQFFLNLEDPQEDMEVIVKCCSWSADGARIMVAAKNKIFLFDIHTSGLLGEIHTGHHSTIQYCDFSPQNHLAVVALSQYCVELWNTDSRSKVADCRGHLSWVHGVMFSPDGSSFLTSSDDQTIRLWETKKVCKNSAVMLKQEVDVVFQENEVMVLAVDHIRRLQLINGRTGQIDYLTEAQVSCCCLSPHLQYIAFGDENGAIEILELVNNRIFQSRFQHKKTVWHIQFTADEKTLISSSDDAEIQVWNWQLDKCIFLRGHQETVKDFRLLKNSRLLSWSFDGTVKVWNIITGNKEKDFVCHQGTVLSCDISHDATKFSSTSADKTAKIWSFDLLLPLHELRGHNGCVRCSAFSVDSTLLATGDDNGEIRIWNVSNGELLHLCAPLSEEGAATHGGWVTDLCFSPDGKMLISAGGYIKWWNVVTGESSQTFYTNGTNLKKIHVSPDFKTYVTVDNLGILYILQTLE
Type of experiment: functional.

On to `Cc1ccc(NC2=CC(=O)C(=O)c3ccccc32)cc1`, for which the figures for the concentration giving a half-maximal response (EC50) in experiment [1] and in experiment [2] were 451 nM (active) and 40700 nM (active), respectively. Further, the IC50 in experiment [3] is 26200 nM (inactive).
`O=C(O)c1ccc(S(=O)(=O)/N=C2\C=C(Nc3ccccc3F)C(=O)c3ccccc32)cc1`: the 50% inhibitory concentration (IC50) (on Hexokinase HKDC1; in experiment [4]) was 3000 nM (active) in each case.
